The values below come from patent US20230158157A1, “POTENT AND SELECTIVE DEGRADERS OF ALK” (DANA-FARBER CANCER INSTITUTE, INC., priority 2020, published 2023).

In one assay the target is T1, EML4-ALK (Homo sapiens, UniProt Q9UM73).
T1 construct: endogenous in cells; host or cells: H3122 (NSCLC), single-cell clone after CRISPR knock-in of HiBit; the other entry of the earlier key: EML4 (Q9HC35, Echinoderm microtubule-associated protein-like 4)
As to the kind of experiment: EML4-ALK HiBit degradation assay in CRISPR-tagged H3122 cells (Nano-Glo HiBit Lytic Detection). Type of assay: cell-based. How it is done: NSCLC cell line H3122 was subjected to CRISPR to express EML4-ALK with HiBit-tag on its c-terminal. Single-cell clone was selected and expanded for the following assays that monitor endogenous EML4-ALK level in high throughput manner. Cells were seeded in 384-well white Tissue-culture plates at 3000 cells/well for 8 hours. […] HiBit signal was assessed using Nano-Glo® HiBit Lytic Detection System (Promega™). Degrader-treated was normalized by DMSO-treated controls and DC50 and Dmax were generated by GraphPad Prism® 8.0.
NSCLC cell line H3122 was subjected to CRISPR to express EML4-ALK with HiBit-tag on its c-terminus. A single-cell clone was selected and expanded for the following assays that monitor endogenous EML4-ALK level in high throughput manner. Cells were seeded in 384-well white Tissue-culture plates at 3000 cells/well for 8 hours. […] HiBit signal was assessed using Nano-Glo® HiBit Lytic Detection System (Promega™). Degrader-treated cells were normalized by DMSO-treated controls and DC50 and Dmax were generated by GraphPad Prism® 8.0.
NSCLC cell line H3122 was subjected to CRISPR to express EML4-ALK with HiBit-tag on its C-terminus. A single-cell clone was selected and expanded for the following assays that monitor endogenous EML4-ALK level in high throughput manner. Cells were seeded in 384-well white Tissue-culture plates at 3000 cells/well for 8 hours. […] HiBit signal was assessed using Nano-Glo® HiBit Lytic Detection System (Promega™). Degrader-treated cells were normalized by DMSO-treated controls and DC50 and Dmax were generated by GraphPad Prism® 8.0.

Another assay deals with H3122 cells. As to the kind of experiment: CTG. Particulars: Homo sapiens, NCI-H3122; Table 1; read-out: CTG IC50. Type of assay: cell-based.
Setting [1] is: NCI-H3122, Table 1, first Dmax column, H3122 EML4-ALK-HiBit, 16 hours, read-out: Degradation Dmax.
The mark [2] stands for this setting: NCI-H3122, Table 1, average Dmax, read-out: Degradation Avg. Dmax.
[3] abbreviates: Table 1, first DC50 column, H3122 EML4-ALK-HiBit, 16 hours, read-out: Degradation DC50.
Setting [4] is: NCI-H3122, Table 1, second Dmax column, H3122 EML4-ALK-HiBit, 16 hours, read-out: Degradation Dmax.
The mark [5] stands for this setting: Table 1, second DC50 column, H3122 EML4-ALK-HiBit, 16 hours, read-out: Degradation DC50.
Where [6] appears, read: Table 1, average DC50, read-out: Degradation Avg. DC50.

Each structure is given as a SMILES string. Read-outs that look alike come from different tables or passages of the source.

T1 sequence (Q9UM73 with tags, fused parts or gaps): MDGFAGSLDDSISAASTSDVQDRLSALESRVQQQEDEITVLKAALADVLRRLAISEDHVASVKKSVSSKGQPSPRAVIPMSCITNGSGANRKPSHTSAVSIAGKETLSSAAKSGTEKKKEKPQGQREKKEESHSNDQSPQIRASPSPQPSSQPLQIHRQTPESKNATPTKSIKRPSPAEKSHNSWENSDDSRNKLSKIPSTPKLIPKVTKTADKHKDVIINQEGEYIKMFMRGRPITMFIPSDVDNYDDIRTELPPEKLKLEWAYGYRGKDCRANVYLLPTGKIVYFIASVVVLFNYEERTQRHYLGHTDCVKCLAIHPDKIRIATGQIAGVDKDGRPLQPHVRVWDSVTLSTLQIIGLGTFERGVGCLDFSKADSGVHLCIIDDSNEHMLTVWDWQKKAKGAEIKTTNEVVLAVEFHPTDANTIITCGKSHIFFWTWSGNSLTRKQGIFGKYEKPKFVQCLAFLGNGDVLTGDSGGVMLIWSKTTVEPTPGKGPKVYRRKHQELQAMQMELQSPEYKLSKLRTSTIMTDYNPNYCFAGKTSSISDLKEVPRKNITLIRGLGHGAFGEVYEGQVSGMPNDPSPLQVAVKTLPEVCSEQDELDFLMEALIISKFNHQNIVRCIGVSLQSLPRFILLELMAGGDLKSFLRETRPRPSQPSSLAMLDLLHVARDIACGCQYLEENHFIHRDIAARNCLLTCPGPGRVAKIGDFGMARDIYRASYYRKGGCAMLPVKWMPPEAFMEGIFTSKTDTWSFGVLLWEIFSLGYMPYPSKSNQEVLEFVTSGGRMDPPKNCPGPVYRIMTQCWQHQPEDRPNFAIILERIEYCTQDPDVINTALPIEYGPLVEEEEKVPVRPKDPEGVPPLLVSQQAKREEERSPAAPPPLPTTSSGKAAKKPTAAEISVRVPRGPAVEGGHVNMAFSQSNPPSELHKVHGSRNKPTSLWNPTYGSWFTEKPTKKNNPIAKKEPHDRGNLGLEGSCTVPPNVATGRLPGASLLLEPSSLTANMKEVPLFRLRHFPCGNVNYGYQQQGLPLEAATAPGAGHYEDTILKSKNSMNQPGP

Take `COc1cc(CCN(C)C(=O)CCCNC(=O)COc2cccc3c2C(=O)N(C2CCC(=O)NC2=O)C3=O)c(C)cc1Nc1ncc(Cl)c(Nc2ccccc2S(=O)(=O)C(C)C)n1` (centres unmarked) [compound 5, N-(4-((5-chloro-4-((2-(isopropylsulfonyl)phenyl)amino)pyrimidin-2-yl)amino)-5-methoxy-2-methylphenethyl)-4-(2-((2-(2,6-dioxopiperidin-3-yl)-1,3-dioxoisoindolin-4-yl)oxy)acetamido)-N-methylbutanamide]: the Dmax at EML4-ALK (setting [1]) and on EML4-ALK (setting [2]) was 44.5% each time. Besides, the DC50 at EML4-ALK (setting [3]) came out at 0.239 µM. The IC50 with H3122 cells is 0.149 µM.

Consider `COc1cc(CCN(C)C(=O)CCCCCNC(=O)COc2cccc3c2C(=O)N(C2CCC(=O)NC2=O)C3=O)c(C)cc1Nc1ncc(Cl)c(Nc2ccccc2S(=O)(=O)C(C)C)n1` (centres unmarked) [compound 6, N-(4-((5-chloro-4-((2-(isopropylsulfonyl)phenyl)amino)pyrimidin-2-yl)amino)-5-methoxy-2-methylphenethyl)-6-(2-((2-(2,6-dioxopiperidin-3-yl)-1,3-dioxoisoindolin-4-yl)oxy)acetamido)-N-methylhexanamide], for which the values for the Dmax at EML4-ALK (setting [1]), at EML4-ALK (setting [4]) and on EML4-ALK (setting [2]) were 34%, 30.4% and 32.2%, respectively. The DC50 was determined as 0.124 µM at EML4-ALK (setting [3]), 0.266 µM on EML4-ALK (setting [5]) and 0.195 µM on EML4-ALK (setting [6]). Moreover, the IC50 in the assay with H3122 cells was 0.0116 µM.

For the compound `COc1cc(CCN(C)C(=O)CCCCCCCCNC(=O)COc2cccc3c2C(=O)N(C2CCC(=O)NC2=O)C3=O)c(C)cc1Nc1ncc(Cl)c(Nc2ccccc2S(=O)(=O)C(C)C)n1` (centres unmarked) [compound 7, N-(4-((5-chloro-4-((2-(isopropylsulfonyl)phenyl)amino)pyrimidin-2-yl)amino)-5-methoxy-2-methylphenethyl)-9-(2-((2-(2,6-dioxopiperidin-3-yl)-1,3-dioxoisoindolin-4-yl)oxy)acetamido)-N-methylnonanamide], the Dmax was determined as 50.8% at EML4-ALK (setting [1]), 44.8% at EML4-ALK (setting [4]) and 47.8% at EML4-ALK (setting [2]). Besides, the DC50 on EML4-ALK (setting [3]) worked out at 0.091 µM; on EML4-ALK (setting [5]), 0.036 µM; at EML4-ALK (setting [6]) it was 0.063 µM. The IC50 in the assay with H3122 cells amounted to 0.0157 µM.

For the compound `COc1cc(CCN(C)C(=O)CCOCCOCCNC(=O)COc2cccc3c2C(=O)N(C2CCC(=O)NC2=O)C3=O)c(C)cc1Nc1ncc(Cl)c(Nc2ccccc2S(=O)(=O)C(C)C)n1` (centres unmarked) [compound 8, N-(4-((5-chloro-4-((2-(isopropylsulfonyl)phenyl)amino)pyrimidin-2-yl)amino)-5-methoxy-2-methylphenethyl)-3-(2-(2-(2-((2-(2,6-dioxopiperidin-3-yl)-1,3-dioxoisoindolin-4-yl)oxy)acetamido)ethoxy)ethoxy)-N-methylpropanamide], the Dmax amounted to 44.3% on EML4-ALK (setting [1]) and 44.8% on EML4-ALK (setting [2]). Besides, the DC50 on EML4-ALK (setting [3]) and on EML4-ALK (setting [6]) was 0.171 µM in each case. Further, the IC50 in the assay with H3122 cells was 0.075 µM.

With `COc1cc(CCN(C)C(=O)CCCC#Cc2cccc3c2C(=O)N(C2CCC(=O)NC2=O)C3=O)c(C)cc1Nc1ncc(Cl)c(Nc2ccccc2S(=O)(=O)C(C)C)n1` (centres unmarked) [compound 9, N-(4-((5-chloro-4-((2-(isopropylsulfonyl)phenyl)amino)pyrimidin-2-yl)amino)-5-methoxy-2-methylphenethyl)-6-(2-(2,6-dioxopiperidin-3-yl)-1,3-dioxoisoindolin-4-yl)-N-methylhex-5-ynamide], the Dmax on EML4-ALK (setting [1]) and on EML4-ALK (setting [2]) was 54.1% in each case. Further, the DC50 on EML4-ALK (setting [3]) and on EML4-ALK (setting [6]) was 0.265 µM each time. Also, the IC50 in the assay with H3122 cells amounted to 0.122 µM.

For `COc1cc(CCN(C)C(=O)CCCCCC#Cc2cccc3c2C(=O)N(C2CCC(=O)NC2=O)C3=O)c(C)cc1Nc1ncc(Cl)c(Nc2ccccc2S(=O)(=O)C(C)C)n1` (centres unmarked) [compound 10, N-(4-((5-chloro-4-((2-(isopropylsulfonyl)phenyl)amino)pyrimidin-2-yl)amino)-5-methoxy-2-methylphenethyl)-8-(2-(2,6-dioxopiperidin-3-yl)-1,3-dioxoisoindolin-4-yl)-N-methyloct-7-ynamide], the greatest degradation seen (Dmax) at EML4-ALK (setting [1]) and at EML4-ALK (setting [2]) was 43.4% throughout. The DC50 on EML4-ALK (setting [3]) and at EML4-ALK (setting [6]) was 0.203 µM each time. For the same compound, the IC50 in the assay with H3122 cells is 0.125 µM.

On to `COc1cc(CCN(C)C(=O)CCOCCOCCOCC#Cc2cccc3c2C(=O)N(C2CCC(=O)NC2=O)C3=O)c(C)cc1Nc1ncc(Cl)c(Nc2ccccc2S(=O)(=O)C(C)C)n1` (centres unmarked) [compound 11, N-(4-((5-chloro-4-((2-(isopropylsulfonyl)phenyl)amino)pyrimidin-2-yl)amino)-5-methoxy-2-methylphenethyl)-3-(2-(2-((3-(2-(2,6-dioxopiperidin-3-yl)-1,3-dioxoisoindolin-4-yl)prop-2-yn-1-yl)oxy)ethoxy)ethoxy)-N-methylpropanamide], for which the Dmax at EML4-ALK (setting [1]) and on EML4-ALK (setting [2]) was 53.3% in each case. Besides, the figures for the DC50 at EML4-ALK (setting [3]) and at EML4-ALK (setting [6]) were 0.502 µM and 0.302 µM, respectively. Besides, in the assay with H3122 cells, the IC50 turned out to be 0.219 µM.

On to `COc1cc(CCN(C)C(=O)CCCCCCC(=O)N[C@H](C(=O)N2C[C@H](O)C[C@H]2C(=O)N[C@@H](C)c2ccc(-c3scnc3C)cc2)C(C)(C)C)c(C)cc1Nc1ncc(Cl)c(Nc2ccccc2S(=O)(=O)C(C)C)n1` [compound 40, N^1-(4-((5-chloro-4-((2-(isopropylsulfonyl)phenyl)amino)pyrimidin-2-yl)amino)-5-methoxy-2-methylphenethyl)-N^8-((S)-1-((2S,4R)-4-hydroxy-2-(((S)-1-(4-(4-methylthiazol-5-yl)phenyl)ethyl)carbamoyl)pyrrolidin-1-yl)-3,3-dimethyl-1-oxobutan-2-yl)-N^1-methyloctanediamide], for which the Dmax on EML4-ALK (setting [1]) worked out at 68.6%; at EML4-ALK (setting [4]), 41.6%; at EML4-ALK (setting [2]) it was 55.1%. Moreover, the DC50 at EML4-ALK (setting [3]) was determined as 0.392 µM; on EML4-ALK (setting [5]) it was 0.145 µM; on EML4-ALK (setting [6]) it was 0.269 µM. For the same compound, the IC50 in the assay with H3122 cells amounted to 0.149 µM.

`COc1cc(CCN(C)C(=O)CCCCCCCC(=O)N[C@H](C(=O)N2C[C@H](O)C[C@H]2C(=O)N[C@@H](C)c2ccc(-c3scnc3C)cc2)C(C)(C)C)c(C)cc1Nc1ncc(Cl)c(Nc2ccccc2S(=O)(=O)C(C)C)n1` [compound 41, N^1-(4-((5-chloro-4-((2-(isopropylsulfonyl)phenyl)amino)pyrimidin-2-yl)amino)-5-methoxy-2-methylphenethyl)-N^9-((S)-1-((2S,4R)-4-hydroxy-2-(((S)-1-(4-(4-methylthiazol-5-yl)phenyl)ethyl)carbamoyl)pyrrolidin-1-yl)-3,3-dimethyl-1-oxobutan-2-yl)-N^1-methylnonanediamide]: the Dmax on EML4-ALK (setting [1]) and on EML4-ALK (setting [2]) was 56.2% in each case. Besides, the DC50 at EML4-ALK (setting [3]) and on EML4-ALK (setting [6]) was 0.626 µM each time. For the same compound, in the assay with H3122 cells, the IC50 is 0.176 µM.

Regarding `COc1cc(CCN(C)C(=O)CCCCCCCCC(=O)N[C@H](C(=O)N2C[C@H](O)C[C@H]2C(=O)N[C@@H](C)c2ccc(-c3scnc3C)cc2)C(C)(C)C)c(C)cc1Nc1ncc(Cl)c(Nc2ccccc2S(=O)(=O)C(C)C)n1` [compound 42, N^1-(4-((5-chloro-4-((2-(isopropylsulfonyl)phenyl)amino)pyrimidin-2-yl)amino)-5-methoxy-2-methylphenethyl)-N^10-((S)-1-((2S,4R)-4-hydroxy-2-(((S)-1-(4-(4-methylthiazol-5-yl)phenyl)ethyl)carbamoyl)pyrrolidin-1-yl)-3,3-dimethyl-1-oxobutan-2-yl)-N^1-methyldecanediamide], the Dmax at EML4-ALK (setting [1]) and at EML4-ALK (setting [2]) was 47.3% throughout. The DC50 at EML4-ALK (setting [3]) and at EML4-ALK (setting [6]) was 0.777 µM each time. Moreover, in the assay with H3122 cells, the IC50 came to 1.31 µM.

For the compound `COc1cc(CCN(C)C(=O)CCOCCC(=O)N[C@H](C(=O)N2C[C@H](O)C[C@H]2C(=O)N[C@@H](C)c2ccc(-c3scnc3C)cc2)C(C)(C)C)c(C)cc1Nc1ncc(Cl)c(Nc2ccccc2S(=O)(=O)C(C)C)n1` [compound 52, (2S,4R)-1-((S)-2-(3-(3-((4-((5-chloro-4-((2-(isopropylsulfonyl)phenyl)amino)pyrimidin-2-yl)amino)-5-methoxy-2-methylphenethyl)(methyl)amino)-3-oxopropoxy)propanamido)-3,3-dimethylbutanoyl)-4-hydroxy-N-((S)-1-(4-(4-methylthiazol-5-yl)phenyl)ethyl)pyrrolidine-2-carboxamide], the maximal degradation (Dmax) on EML4-ALK (setting [1]) stood at 54.8%; at EML4-ALK (setting [4]), 49.4%; at EML4-ALK (setting [2]) it was 52.1%. For the same compound, the DC50 on EML4-ALK (setting [3]) turned out to be 0.214 µM; on EML4-ALK (setting [5]), 0.107 µM; at EML4-ALK (setting [6]), 0.16 µM. For the same compound, the IC50 in the assay on H3122 cells worked out at 0.0677 µM.
